Measurements as given in patent publication US10653732B2, “Composition for stimulating insulin secretion from cells and use thereof” (KOREA INSTITUTE OF SCIENCE AND TECHNOLOGY, priority 2017, dated 2020).
Entries after “also recorded” stand apart in the source; their conditions may differ.

Experiments:
[1] = test system: INS-1 cells; assay: Effect on insulin secretion of INS-1 cells (stimulation index, rat insulin RIA); type: cell-based; conditions: for Stimulation index (SI): 16.7 mM / […] glucose; for insulin secretion of INS-1 cells in words: concentrations of Table 2
Description: Thereafter, the cells were washed twice with 2 ml of Krebs-Ringer buffer which was prepared by mixing 114 mM sodium chloride (NaCl), 4.4 mM potassium chloride (KCl), 1 mM magnesium sulfate (MgSO4), 1.28 mM calcium chloride (CaCl2), 29.5 mM sodium bicarbonate (NaHCO3), 10 mM Hepes (Gibco BRL Life Technologies), and 0.1% bovine serum albumin (BSA) and adjusting a hydrogen ion concentration at pH 7.4.
The concentration of the single compound was 1 μM, 2.5 μM, and 5 μM.
0.2 mL of Krebs-Ringer buffer containing […] glucose was added to each well, and incubated for 1 hour. Thereafter, centrifugation was performed at 4° C. for 10 minutes at 12,000 rpm, and a supernatant was taken and quantity of insulin was measured by using a Rat insulin RIA kit (Gentaur Molecular Products, Belgium). Stimulation index (SI) was calculated by dividing a value measured at a high concentration of glucose, i.e., quantity of insulin secreted by stimulation of 16.7 mM glucose by a value measured at a low concentration of glucose, i.e., quantity of insulin secreted by stimulation of 3.3 mM glucose. As a positive control group, gliclazide was used at a concentration of 2.5 μM, 5.0 μM, 10 μM, or 20 μM.

[2] = test system: INS-1 cells; assay: Measurement of cytotoxicity against INS-1 cells (CCK-8 cell viability); type: cell-based, rat; conditions: for Cell viability (%): 24 hours, INS-1; for cytotoxicity / toxicity in words: INS-1 cells, concentrations of Table 1
Description: A cell line INS-1 (Biohermes, Shanghai, China) is a rat insulinoma, and has ability to secrete insulin.
The concentration of the single compound was 1.0 μM, 2.5 μM, and 5.0 μM.
In Table 1, cell viability was calculated by the following equation:
Cell viability (%)=NB×100, wherein A represents absorbance of a non-sample added group and B represents absorbance of a sample-added group.

[3] = test system: INS-1 cells; assay: Protecting effect on pancreatic toxicity (streptozotocin-treated INS-1 cells, CCK-8); conditions: for Cell viability (%): rat, 24 h
Description: The cell line INS-1 (Biohermes, Shanghai, China) was used to evaluate a protecting effect on pancreatic toxicity as follows.
INS-1 cells were cultured in RPMI1640 medium (Cellgro, Manassas, USA) supplemented with 10% fetal bovine serum (FBS), 100 unit/mL of penicillin G, 100 μg/mL of streptomycin, 10 mM Hepes, 2 mM L-glutamine, 1 mM sodium pyruvate, and 0.05 mM 2-merchapto ethanol in an incubator maintained at 37° C. and 95% air/5% carbon dioxide. Among the above-mentioned ingredients, the reagents of which manufacturers were not mentioned were purchased from Gibco BRL, Life Technologies.
The cultured INS-1 cells were dispensed at a density of 1×10^4 per well in 100 μL of the same medium in a 96-well plate, and cultured for 24 hours under the same conditions to stabilize the cells. […] Then, 10 μL (final concentration of 50 μM) of 500 μM streptozotocin in the same medium was added and cultured for 24 hours. Then, 10 μL of CCK-8 (Dojindo Laboratories, Japan) reagent was added to each well, and cultured at 37° C. 1 hour later, absorbance at 450 nm was measured by using a BIO-TEK (Winooski, Vt., USA) microplate reader to measure cell viability. The predetermined concentrations are as follows: concentrations of the extract and the fractions were 0 μg/mL, 5 μg/mL, 10 μg/mL, 25 μg/mL, 50 μg/mL, and 100 μg/mL. The concentration of the single compound was 0 μM, 5 μM, 10 μM, 25 μM, 50 μM, and 100 μM.

[4] = test system: INS-1 cells; assay: Image-based cell analysis of apoptosis (Annexin V/PI) in streptozotocin-treated INS-1 cells; set-up: species or system rat; conditions: 50 μM streptozotocin; for green fluorescent (apoptotic) cells, microscopic image FIG. 8A: 10 μM or more; for Apoptosis (%): 10 μM, 24 hours, annexin V-positive cells; for apoptosis by streptozotocin in words, FIG. 8B: INS-1 cells
Description: Thereafter, hypoxylonol-C and BNT at a concentration of 10 μM were added to 2.7 mL of the same medium and further cultured for 2 hours. […] Then, cells were collected by using trypsin, and washed with PBS once. The cells were suspended in 100 μL of Annexin binding buffer (composition: 100 mM HEPES, 140 mM NaCl, 25 mM CaCl2, pH 7.4) at a density of 5×10^5 to 5×10^6 cells/mL, and then mixed with 5 μL of Annexin V Alexa Fluor 488, and fixed and stained at room temperature for 20 minutes in the dark room. The cell suspension was centrifuged to discard the supernatant. Precipitated cell pellets were re-suspended in 100 μL of Annexin binding buffer. 1 μL of propidium was added to the cell suspension and mixed well to fix and stain the cells at room temperature for 1 minute to 5 minutes in the dark room. Analysis of the stained cells was performed by using a Tali Image-based cytometer and TaliPCApp (version 1.0).
Cells were sorted into living cells (annexin V-negative/PI-negative), early apoptotic cells (annexin V-positive/PI-negative), and late apoptotic cells or necrotic cells (annexin V-positive/PI-positive), and total apoptotic cells was expressed as a percentage of annexin V-positive/PI-negative or positive cells.

[5] = Fukai et al., J. Nat. Prod. 2014, 77, 1065-1068; cited from earlier work
[6] = 2.5 (head μg/ml; b127, b128 μM for single compound and gliclazide)
[7] = 5.0 (head μg/ml; b127, b128 μM for single compound and gliclazide)
[8] = 1.0 (μg/mL; μM for single compound)
[9] = 2.5 (μg/mL; μM for single compound)
[10] = 5.0 (μg/mL; μM for single compound)
[11] = 1.0 (head μg/ml; b127 μM for single compound)

Structure (SMILES) | Stimulation index (SI) [1, 6] | Stimulation index (SI) [1, 7] | Cell viability (%) [2, 8] [%] | Cell viability (%) [2, 9] [%] | Cell viability (%) [2, 10] [%] | cytotoxicity / toxicity in words [2] | Stimulation index (SI) [1, 11] | insulin secretion of INS-1 cells in words [1] | cell viability reduced by streptozotocin, effect in words ([3]; 50 μM streptozotocin) | Cell viability (%) ([3]; 5 µM) | Cell viability (%) ([3]; 10 µM) | Cell viability (%) ([3]; 25 µM) | Cell viability (%) ([3]; 50 µM) | green fluorescent (apoptotic) cells, microscopic image FIG. 8A [4] | Apoptosis (%) [4] [%] | apoptosis by streptozotocin in words, FIG. 8B [4] | also measured
Cc1ccc(S(=O)(=O)NC(=O)NN2CC3CCCC3C2)cc1 (stereo not shown) [gliclazide, reference compound] | 6.1 ± 0.0 | 5.7 ± 0.0 | – | – | – | – | – | – | – | – | – | – | – | – | – | – | Stimulation index (SI) ([1]; 10.0 (head μg/ml; b128 μM for gliclazide)): 6.1 ± 0.1; Stimulation index (SI) ([1]; 20.0 (head μg/ml; b128 μM for gliclazide)): 9.3 ± 0.0
Oc1cccc2c(-c3ccc(O)c4c(O)cccc34)ccc(O)c12 [BNT, 1,1′-binaphthalene-4,4′,5,5′-tetrol] | 7.4 ± 0.0 | 6.8 ± 0.2 | 100.3 ± 3.6 | 100.1 ± 2.1 | 106.6 ± 2.9 | no cytotoxicity; also recorded: no toxicity | 6.7 ± 0.0 | concentration-dependent manner | significantly increased cell viability | 73.5 ± 3.0 | 76.8 ± 4.5 | 78.4 ± 1.5 | 81.5 ± 3.3 | apoptotic cells were decreased | 19.3 ± 0.5 | remarkably reduced apoptosis | –
O=C1CC2C(=C3c4c2ccc(O)c4[C@@H](O)C[C@@H]3O)c2cccc(O)c21 (stereo partly shown) [Hypoxylonol-C] | 5.3 ± 0.1 | 6.1 ± 0.1 | 97.4 ± 1.7 | 96.4 ± 1.4 | 97.3 ± 3.0 | no cytotoxicity; also recorded: no toxicity | 6.3 ± 0.3 | concentration-dependent manner | significantly increased cell viability | 66.0 ± 0.9 | 75.6 ± 2.5 | 80.7 ± 1.5 | 85.7 ± 1.7 | apoptotic cells were decreased | 21.6 ± 1.5 | remarkably reduced apoptosis | antiangiogenic effect [5]: has an antiangiogenic effect
CN(N=O)C(=O)N[C@H]1C(O)O[C@H](CO)[C@@H](O)[C@@H]1O (mixture of isomers) [streptozotocin, reference compound] | – | – | – | – | – | – | – | – | – | – | – | – | – | – | – | – | number of INS-1 cells as compared with non-treated group ([3]; 50 μM streptozotocin, 24 hours): ≤ 50%
O=C1CC2C(=C3c4c2ccc(O)c4[C@H](O)C[C@@H]3O)c2cccc(O)c21 (stereo partly shown) [Hypoxylonol-F] | 7.7 ± 0.3 | 10.6 ± 0.3 | 96.2 ± 4.5 | 97.3 ± 4.6 | 96.1 ± 0.9 | no cytotoxicity; also recorded: no toxicity | 7.1 ± 0.4 | concentration-dependent manner | significantly increased cell viability | 70.1 ± 1.7 | 68.3 ± 3.2 | 70.0 ± 4.3 | 69.8 ± 3.8 | – | – | – | Cell viability (%) ([3]; 100 µM): 71.6 ± 0.9%
